The values below come from patent publication US12077503B2, “Substituted cyclic amides and their use as herbicides” (FMC CORPORATION, priority 2015, dated 2024).

Common to all, as to type: in vivo
Assay [1] deals with giant foxtail (Setaria faberii). Kind of assay: Test A postemergence. Conditions: Setaria faberi, post-emergence, 240 h, 125 g ai/ha, visual injury after approximately 10 d, read-out: Plant response rating, Foxtail, Giant. The method, boiled down:
(§1)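 Compounds were formulated in a non-phytotoxic solvent mixture with surfactant and applied as a preemergence directed soil spray after seeding, or sprayed postemergence over plants 2 to 10 cm tall at the one- to two-leaf stage. Evaluation after about 10 d compared treated with untreated controls, using a scale from 0 (no effect) to 100 (complete control).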

The test system of assay [2] is Galium (catchweed bedstraw, Galium aparine). In words: Test A postemergence. The settings on record: Galium, post-emergence, 240 h, 125 g ai/ha, visual injury after approximately 10 d, read-out: Plant response rating, Galium. Summed up: as §1
For assay [3], the system named is barnyardgrass (Echinochloa crus-galli). Kind of assay: Test A postemergence. Conditions: Echinochloa crus-galli, post-emergence, 240 h, 125 g ai/ha, visual injury after approximately 10 d, read-out: Plant response rating, Barnyardgrass. Summed up:
as §1

The subject of another assay is corn (Zea mays). In words: Test A postemergence. The settings on record: Zea mays, post-emergence, 240 h, 125 g ai/ha, visual injury after approximately 10 d. The method, boiled down: as §1
In assay [4] the test system is Kochia (Kochia scoparia). In words: Test A postemergence. Conditions: Bassia scoparia, post-emergence, 240 h, 125 g ai/ha, visual injury after approximately 10 d, read-out: Plant response rating, Kochia. Summed up: as §1
Assay [5] deals with pigweed (Amaranthus retroflexus). Kind of assay: Test A postemergence. The settings on record: Amaranthus retroflexus, post-emergence, 240 h, 125 g ai/ha, visual injury after approximately 10 d, read-out: Plant response rating, Pigweed. Summed up:
as §1

Assay [6] concerns wheat (Triticum aestivum). In words: Test A postemergence. The settings on record: Triticum aestivum, post-emergence, 240 h, 125 g ai/ha, visual injury after approximately 10 d, read-out: Plant response rating, Wheat. Summed up: as §1
In assay [7] the test system is ryegrass, Italian (Italian ryegrass, Lolium multiflorum). Kind of assay: Test A postemergence. The settings on record: Lolium multiflorum, post-emergence, 240 h, 125 g ai/ha, visual injury after approximately 10 d, read-out: Plant response rating, Ryegrass, Italian. The method, boiled down:
as §1

Assay [8] deals with ragweed (common ragweed, Ambrosia elatior). Kind of assay: Test A postemergence. Conditions: Ambrosia artemisiifolia, post-emergence, 240 h, 125 g ai/ha, visual injury after approximately 10 d, read-out: Plant response rating, Ragweed. The method, boiled down: as §1
In assay [9] the test system is blackgrass (Alopecurus myosuroides). In words: Test A postemergence. Conditions: Alopecurus myosuroides, post-emergence, 240 h, 125 g ai/ha, visual injury after approximately 10 d, read-out: Plant response rating, Blackgrass. The method, boiled down: as §1
The test system of assay [10] is giant foxtail (Setaria faberii). In words: Test A preemergence. Conditions: Setaria faberi, pre-emergence, 240 h; for pest or weed control at 125 g/ha: 125 g ai/ha, 0 to 100 scale where 0 is no effect and 100 is complete control; for pest or weed control at 500 g/ha: 500 g ai/ha. Summed up: as §1
Assay [11] concerns barnyardgrass (Echinochloa crus-galli). In words: Test A preemergence. Conditions: Echinochloa crus-galli, pre-emergence, 240 h; for pest or weed control at 125 g/ha: 125 g ai/ha, 0 to 100 scale where 0 is no effect and 100 is complete control; for pest or weed control at 500 g/ha: 500 g ai/ha. The method, boiled down: as §1
Assay [12] deals with Kochia (Kochia scoparia). In words: Test A preemergence. Conditions: Bassia scoparia, pre-emergence, 240 h; for pest or weed control at 125 g/ha: 125 g ai/ha, 0 to 100 scale where 0 is no effect and 100 is complete control; for pest or weed control at 500 g/ha: 500 g ai/ha. The method, boiled down: as §1
Assay [13] relates to pigweed (Amaranthus retroflexus). Kind of assay: Test A preemergence. Conditions: Amaranthus retroflexus, pre-emergence, 240 h; for pest or weed control at 125 g/ha: 125 g ai/ha, 0 to 100 scale where 0 is no effect and 100 is complete control; for pest or weed control at 500 g/ha: 500 g ai/ha.
Assay [14] deals with ryegrass, Italian (Italian ryegrass, Lolium multiflorum). Kind of assay: Test A preemergence. The settings on record: Lolium multiflorum, pre-emergence, 240 h; for pest or weed control at 125 g/ha: 125 g ai/ha, 0 to 100 scale where 0 is no effect and 100 is complete control; for pest or weed control at 500 g/ha: 500 g ai/ha. Summed up: as §1
Assay [15] deals with ragweed (common ragweed, Ambrosia elatior). In words: Test A preemergence. The settings on record: Ambrosia artemisiifolia, pre-emergence, 240 h; for pest or weed control at 125 g/ha: 125 g ai/ha, 0 to 100 scale where 0 is no effect and 100 is complete control; for pest or weed control at 500 g/ha: 500 g ai/ha. Summed up:
as §1

The mark [16] stands for this setting: postemergence, 0 to 100 scale (0 no effect, 100 complete control).
Setting [17] is: Postemergence, 0 to 100 scale where 0 is no effect and 100 is complete control.

SMILES strings stand for the structures. Where two headings read alike, the source gives them in different places.

Turning to `C=CCN1C[C@H](c2ccc(OC)c(F)c2)[C@@H](C(=O)Nc2ccccc2C(F)(F)F)C1=O` [Compound 723], the pest or weed control at 125 g/ha (in assay [1] (setting [16]); in assay [2] (setting [16]); in assay [3] (setting [16]); in the assay with Kochia (Kochia scoparia) [4] (setting [16]); in assay [5] (setting [16]); in assay [7] (setting [16])) was 0% throughout. For the same compound, the pest or weed control at 125 g/ha in assay [8] (setting [16]) is 0%; in [9] (setting [16]) it was 0%; in assay [10] (preemergence, visual rating after approx. 10 d, read-out: Plant response rating, Foxtail, Giant), 0%; in assay [11] (preemergence, visual rating after approx. 10 d, read-out: Plant response rating, Barnyardgrass) it was 0%; in the assay on Kochia (Kochia scoparia) [12] (preemergence, visual rating after approx. 10 d, read-out: Plant response rating, Kochia), 0%; in assay [13] (preemergence, visual rating after approx. 10 d, read-out: Plant response rating, Pigweed), 0%. Also, the pest or weed control at 125 g/ha in [14] (preemergence, visual rating after approx. 10 d, read-out: Plant response rating, Ryegrass, Italian) came to 0%; in [15] (preemergence, visual rating after approx. 10 d, read-out: Plant response rating, Ragweed) it was 0%. For the same compound, the Corn plant response rating (crop injury, 0 = no effect, 100 = complete kill) at 125 g/ha in the assay with corn (Zea mays) (setting [16]) was found to be 0%. Moreover, the plant injury at 125 g/ha in assay [6] (setting [16]) turned out to be 0%. For the same compound, the pest or weed control at 500 g/ha in [10] (preemergence, 0 to 100 scale, 0 = no effect, 100 = complete control, read-out: Plant response rating, Foxtail, Giant) was found to be 50%; in [11] (preemergence, 0 to 100 scale, 0 = no effect, 100 = complete control, read-out: Plant response rating, Barnyardgrass), 0%; in the assay on Kochia (Kochia scoparia) [12] (preemergence, 0 to 100 scale, 0 = no effect, 100 = complete control, read-out: Plant response rating, Kochia) it was 0%; in [13] (preemergence, 0 to 100 scale, 0 = no effect, 100 = complete control, read-out: Plant response rating, Pigweed) it was 0%; in [14] (preemergence, 0 to 100 scale, 0 = no effect, 100 = complete control, read-out: Plant response rating, Ryegrass, Italian) it was 0%; in assay [15] (preemergence, 0 to 100 scale, 0 = no effect, 100 = complete control, read-out: Plant response rating, Ragweed) it was 0%.
For the compound `CN1CC[C@H](c2cccc(Cl)c2)[C@@H](C(=O)Nc2ccccc2S(C)(=O)=O)C1=O` [Compound 923], the pest or weed control at 125 g/ha (in assay [1] (setting [17]); in assay [2] (setting [17]); in assay [3] (setting [17]); with Kochia (Kochia scoparia) [4] (setting [17]); in assay [5] (setting [17]); in [7] (setting [17])) was 0% throughout. The pest or weed control at 125 g/ha is 0% in assay [8] (setting [17]); 0% in [9] (setting [17]); 0% in assay [10] (preemergence, read-out: Foxtail, Giant plant response rating); 0% in assay [11] (preemergence, read-out: Barnyardgrass plant response rating); 0% in the assay with Kochia (Kochia scoparia) [12] (preemergence, read-out: Kochia plant response rating); 0% in assay [13] (preemergence, read-out: Pigweed plant response rating). The pest or weed control at 125 g/ha in assay [14] (preemergence, read-out: Ryegrass, Italian plant response rating) was 0%; in [15] (preemergence, read-out: Ragweed plant response rating) it was 0%. In the assay with corn (Zea mays) (setting [17]), this compound returned a Corn plant response rating (crop injury, 0 = no effect, 100 = complete kill) at 125 g/ha of 0%. Moreover, in [6] (setting [17]), the plant injury at 125 g/ha was 0%. For the same compound, the pest or weed control at 500 g/ha in [10] (Preemergence, visual injury vs untreated controls after approximately 10 d, read-out: Foxtail, Giant plant response rating (0 to 100 scale where 0 is no effect and 100 is complete control)) stood at 70%; in [11] (Preemergence, visual injury vs untreated controls after approximately 10 d, read-out: Barnyardgrass plant response rating (0 to 100 scale where 0 is no effect and 100 is complete control)), 70%; with Kochia (Kochia scoparia) [12] (Preemergence, visual injury vs untreated controls after approximately 10 d, read-out: Kochia plant response rating (0 to 100 scale where 0 is no effect and 100 is complete control)), 0%; in assay [13] (Preemergence, visual injury vs untreated controls after approximately 10 d, read-out: Pigweed plant response rating (0 to 100 scale where 0 is no effect and 100 is complete control)), 0%; in assay [14] (Preemergence, visual injury vs untreated controls after approximately 10 d, read-out: Ryegrass, Italian plant response rating (0 to 100 scale where 0 is no effect and 100 is complete control)) it was 0%; in [15] (Preemergence, visual injury vs untreated controls after approximately 10 d, read-out: Ragweed plant response rating (0 to 100 scale where 0 is no effect and 100 is complete control)) it was 0%.
